{"source": "patent US9408891B2", "about": "“Methods of using gelsolin to treat or prevent bacterial sepsis” (priority 2003, dated 2016)", "target": "T1, recombinant human gelsolin (rhGLS) (Homo sapiens, UniProt P06396)", "T1 construct": "purchased Biogen IDEC, Inc., Cambridge, Mass; host or cells: E. coli", "T1 sequence (P06396 28-782)": "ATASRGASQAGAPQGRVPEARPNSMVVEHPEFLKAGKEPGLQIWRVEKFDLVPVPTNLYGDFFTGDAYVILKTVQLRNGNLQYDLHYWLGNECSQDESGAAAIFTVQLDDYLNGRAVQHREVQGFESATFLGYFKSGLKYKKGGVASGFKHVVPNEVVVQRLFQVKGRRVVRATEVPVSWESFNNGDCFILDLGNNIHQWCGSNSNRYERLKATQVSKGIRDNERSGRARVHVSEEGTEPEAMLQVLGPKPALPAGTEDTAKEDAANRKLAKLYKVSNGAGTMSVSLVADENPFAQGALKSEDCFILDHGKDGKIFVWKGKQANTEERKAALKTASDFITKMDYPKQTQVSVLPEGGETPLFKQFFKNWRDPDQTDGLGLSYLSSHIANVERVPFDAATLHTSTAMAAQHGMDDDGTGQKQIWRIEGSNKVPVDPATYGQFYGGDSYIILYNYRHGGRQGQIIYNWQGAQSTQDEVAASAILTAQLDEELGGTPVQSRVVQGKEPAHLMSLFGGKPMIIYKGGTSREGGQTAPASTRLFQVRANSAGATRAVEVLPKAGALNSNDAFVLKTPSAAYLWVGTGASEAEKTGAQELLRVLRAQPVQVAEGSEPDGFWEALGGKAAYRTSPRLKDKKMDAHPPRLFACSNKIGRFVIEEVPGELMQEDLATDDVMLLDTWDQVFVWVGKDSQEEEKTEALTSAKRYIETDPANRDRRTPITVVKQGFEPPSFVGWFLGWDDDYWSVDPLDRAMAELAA", "assay": "Actin filament severing activity of purified gelsolin (pyrene F-actin depolymerization)", "assay_type": "biochemical", "procedure": "To determine gelsolin's severing activity, rates of fluorescence decrease were evaluated during depolymerization. Monomeric G-actin was prepared from an acetone powder of rabbit skeletal muscle according to previously published methods (Spudich et al., J. Biol. Chem […]). The non-polymerizing solution contained 2 mM TRIS, 0.2 mM CaCl2, 0.5 mM ATP (adenosine triphosphate), 0.2 mM DTT (dithiothreitol) pH 7.4. Actin was polymerized by adding 150 mM KCl and 2 mM MgCl2 to the G-actin solutions and incubating for 1 hour at room temperature.\nFor F-actin severing assays, in general, a small volume (typically 5 μl) of the gelsolin composition is added to a similar volume of pyrene-labeled F-actin at a concentration adjusted to provide an actin:gelsolin ratio of approximately 10:1 (typically 1 μM gelsolin and 10 μM actin). This mixture is the diluted to 0.5 μM in a larger volume of F-actin buffer, and the filament severing efficiency is calculated from the initial slope of the fluorescence change. This reflects the rate of depolymerization that, in turn, is proportional to the number of cuts made by gelsolin. The LPS/gelsolin reaction can be done under any ionic condition, and the addition to F-actin requires the presence of […] Ca^2+ to activate the gelsolin. […] The actin nucleation reaction is similar except that in the latter case, the gelsolin/LPS mixture is added to a more dilute solution of G-actin (typically, 1 or 2 μM) in low ionic strength buffer followed immediately by addition of 150 mM KCI and 2 mM MgCl2 to initiate polymerization.\nAs shown, recombinant human gelsolin (rhGLS) (FIG. 4A) and blood serum (FIG. 4B) severing activity was measured in 0.4 μM pyrene-labeled F-actin samples (polymerized with 50% pyrene-labeled G-actin), after adding gelsolin (16 nM)/serum (2.5 μl), or their combination with one of the following: LPS (from different species), PIP2 (phosphatidyl-inositol-4,5-bisphosphate), LPA (lysophosphatidic acid), lipid A (the LPS derivative lacking polysaccharide) or PS (phosphatidylserine). The fluorescence intensity of F-pyrene actin was then monitored for 10 minutes, and the severing activity was calculated based on decreasing fluorescence. Severing activity was determined from a decrease in rate of fluorescence during depolymerization, and the depolymerization rate was calculated from the slope of the early decrease in fluorescence.", "note": "Entries after “also recorded” stand apart in the source; their conditions may differ."}
{"substance": "lipopolysaccharide [LPS]", "values": [{"measurement": "inhibition of severing activity of gelsolin", "setting": "0.02 μM LPS (100 ng/ml), 0.016 μM gelsolin", "result": 50, "unit": "%"}, {"measurement": "inhibition of severing capability of gelsolin", "setting": "0.1 μM LPS, 0.016 μM gelsolin", "result": 90, "unit": "%"}, {"measurement": "inhibition of severing activity of purified human gelsolin", "setting": "LPS concentration not stated at this place", "result": 50, "unit": "%"}, {"measurement": "inhibitory effect on severing activity of purified gelsolin", "setting": "molar basis comparison", "result": "more potent inhibitor than either LPA or P1P2; also recorded: more potent inhibitor; also recorded: more potent inhibitor of gelsolin actin severing capability than either LPA or PIP2"}]}
